IC50 data for 14 compounds are collected here from patent US5399585A, “Carboxamides and sulfonamides compounds which have useful pharmaceutical utility” (Hoffmann-La Roche Inc., priority 1989, dated 1995).

The structures appear in SMILES notation.

T1 sequence (P08514 32-887 limits assumed): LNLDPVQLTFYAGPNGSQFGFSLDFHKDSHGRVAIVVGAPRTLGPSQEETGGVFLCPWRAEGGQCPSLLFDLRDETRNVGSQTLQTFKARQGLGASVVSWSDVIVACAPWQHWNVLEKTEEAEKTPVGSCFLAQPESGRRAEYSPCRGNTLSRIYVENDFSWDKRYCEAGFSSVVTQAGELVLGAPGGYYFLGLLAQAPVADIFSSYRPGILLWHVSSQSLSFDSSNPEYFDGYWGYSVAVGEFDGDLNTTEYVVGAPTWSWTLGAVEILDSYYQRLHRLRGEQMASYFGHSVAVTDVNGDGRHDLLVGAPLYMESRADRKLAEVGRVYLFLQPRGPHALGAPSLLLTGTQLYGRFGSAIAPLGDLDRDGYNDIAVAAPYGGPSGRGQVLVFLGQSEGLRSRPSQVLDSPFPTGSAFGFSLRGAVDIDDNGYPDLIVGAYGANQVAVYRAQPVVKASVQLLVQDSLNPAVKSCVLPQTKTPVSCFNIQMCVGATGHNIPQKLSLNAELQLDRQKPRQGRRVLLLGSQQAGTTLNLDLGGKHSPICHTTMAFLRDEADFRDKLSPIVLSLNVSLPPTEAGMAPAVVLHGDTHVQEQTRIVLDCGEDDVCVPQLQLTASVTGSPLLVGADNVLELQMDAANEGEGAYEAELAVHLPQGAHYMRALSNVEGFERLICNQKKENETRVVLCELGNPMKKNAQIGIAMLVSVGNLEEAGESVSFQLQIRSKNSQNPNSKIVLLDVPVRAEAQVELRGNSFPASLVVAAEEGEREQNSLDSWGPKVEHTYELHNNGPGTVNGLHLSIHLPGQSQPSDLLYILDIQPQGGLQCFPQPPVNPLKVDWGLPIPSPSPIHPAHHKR
T1 sequence (P08514 891-1039 limits assumed): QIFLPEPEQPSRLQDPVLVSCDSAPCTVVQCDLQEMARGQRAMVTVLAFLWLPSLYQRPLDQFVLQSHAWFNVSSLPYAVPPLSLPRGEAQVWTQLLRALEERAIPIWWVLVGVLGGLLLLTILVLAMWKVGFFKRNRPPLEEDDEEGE
T1 sequence (P05106 27-788): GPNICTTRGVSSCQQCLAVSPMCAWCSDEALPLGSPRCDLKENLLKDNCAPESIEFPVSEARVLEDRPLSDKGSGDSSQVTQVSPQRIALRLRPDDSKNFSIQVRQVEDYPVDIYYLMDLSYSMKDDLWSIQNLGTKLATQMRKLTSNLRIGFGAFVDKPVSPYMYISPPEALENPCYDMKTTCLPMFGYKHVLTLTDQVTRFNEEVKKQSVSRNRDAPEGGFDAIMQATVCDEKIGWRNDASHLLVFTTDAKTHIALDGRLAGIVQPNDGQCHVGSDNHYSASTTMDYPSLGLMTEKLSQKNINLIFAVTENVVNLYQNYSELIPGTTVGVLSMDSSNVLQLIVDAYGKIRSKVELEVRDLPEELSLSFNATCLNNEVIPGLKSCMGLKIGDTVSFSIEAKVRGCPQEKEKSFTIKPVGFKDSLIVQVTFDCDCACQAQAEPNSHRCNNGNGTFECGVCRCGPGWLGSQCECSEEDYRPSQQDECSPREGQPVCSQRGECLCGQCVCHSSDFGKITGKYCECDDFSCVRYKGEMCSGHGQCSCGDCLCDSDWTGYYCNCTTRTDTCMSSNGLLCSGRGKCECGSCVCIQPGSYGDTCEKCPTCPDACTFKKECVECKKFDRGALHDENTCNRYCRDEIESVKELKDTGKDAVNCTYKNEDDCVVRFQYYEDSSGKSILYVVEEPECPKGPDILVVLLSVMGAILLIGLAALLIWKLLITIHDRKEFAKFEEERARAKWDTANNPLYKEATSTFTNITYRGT

The test addresses T1, fibrinogen receptor of blood platelets, glycoprotein IIb/IIIa (Homo sapiens, UniProt P05106+P08514).
T1 construct: Glycoprotein IIb/IIIa is obtained from Triton X-100 extracts of human blood platelets; from tissue; host or cells: human blood platelets (Triton X-100 extract)
As to the kind of experiment: Inhibition of fibrinogen binding to immobilized glycoprotein IIb/IIIa (ELISA). The note with it: purified glycoprotein IIb/IIIa from human blood platelets bound to microtitre plates, read-out: IC50 (concentration of test substance required to inhibit the binding of fibrinogen to the immobilized receptor by 50%). As to the method: Glycoprotein IIb/IIIa is obtained from Triton X-100 extracts of human blood platelets and purified by lectin affinity chromatography (Analytical Biochemistry 151, 1985, 169-177) and chromatography on an Arg-Gly-Asp-Ser affinity column (Science 231, 1986, 1559-62). The receptor protein obtained in this way is bound to microtitre plates. The specific binding of fibrinogen to the immobilized receptor is determined using an ELISA system (enzyme-linked immunosorbent assay). The IC50 values hereinafter correspond to that concentration of the test substance required to inhibit the binding of fibrinogen to the immobilized receptor by 50%: […]
A general note: An ELISA detects its analyte on a solid surface through an enzyme-linked reagent.
As for `N=C(N)c1ccc(S(=O)(=O)NCCc2ccc(OCC(=O)O)cc2)cc1` [Example 12, p-[2-(p-amidinobenzenesulphonamido)ethyl]phenoxyacetic acid], the IC50 turned out to be 100 nM.
Take `N=C(N)c1ccc(C(=O)NCCc2ccc(OCC(=O)O)cc2)cc1` [Example 2, p-[2-(amidinobenzamido)ethyl]phenoxyaceticacid]: the IC50 worked out at 40 nM.
The figure for `N=C(N)c1ccc(S(=O)(=O)NCCOc2ccc(CC(=O)O)cc2)cc1` [Example 10, p-[2-(p-amidinophenylsulphonamido)ethoxy]phenylacetic acid] is 640 nM; for `CC(CC(=O)O)c1ccc(CCNS(=O)(=O)c2ccc(C(=N)N)cc2)cc1` (stereo not drawn) [Example 36, p-[2-(p-amidinophenylsulphonamido)ethyl]-β-methyl-hydrocinnamic acid] it is 100 nM; for `N=C(N)c1ccc(S(=O)(=O)NCC(O)c2ccc(OCC(=O)O)cc2)cc1` (centres unmarked) [Example 20, p-[2-(p-amidinobenzenesulphonamido)-1-hydroxyethyl]phenoxyacetic acid] it is 470 nM.
As to `N=C(N)c1ccc(C(=O)N[C@@H](CO)Cc2ccc(OCC(=O)O)cc2)cc1` [Example 81, p-[(R)-2-(p-amidinobenzamido)-3-hydroxypropyl)phenoxyacetic acid], the IC50 was found to be 80 nM.
The figure for `N=C(N)c1ccc(C(=O)NCCc2ccc(OCC(=O)O)cc2)cn1` [Example 48] is 30 nM; for `C[C@H](Cc1ccc([C@H](C)CC(=O)O)s1)NC(=O)c1ccc(C(=N)N)cc1` (racemic) [Example 40, (RS)-5-[(RS)-2-(p-amidinobenzamido)propyl]-β-methyl-2-thiophene-propionic acid] it is 40 nM; for `COC(=O)COc1ccc(CCNC(=O)c2ccc(C(=N)N)cc2)cc1` [Example 1, Methyl p-[2-(p-amidinobenzamido)ethyl]phenoxyacetate] it is 370 nM.
Consider `N=C(N)c1ccc(CC(=O)NCc2ccc(OCC(=O)O)cc2)cc1` [Example 78, p-[2-(p-amidinophenyl)acetamido]-p-tolyloxyacetic acid], for which the IC50 worked out at 970 nM.
On to `N=C(N)c1ccc(S(=O)(=O)N(CCc2ccc(OCC(=O)O)cc2)Cc2ccccc2)cc1` [Example 18, p-[2-(p-amidino-N-benzylphenylsulphonamido)ethyl]phenoxyacetic acid], for which the IC50 worked out at 720 nM.
The value for `COC(=O)COc1ccc(C(=O)CN(C)C(=O)c2ccc(C(=N)N)cc2)cc1OCC(=O)OC` [Example 82, dimethyl [4-(p-amidino-N-methylbenzamido)acetyl-o-phenylenedioxy]diacetate] was 8.1 nM; that for `N=C(N)c1ccc(S(=O)(=O)NCCCc2ccc(CC(=O)O)cc2)cc1` [Example 46, p-[3-(p-amidinophenylsulphonamido)propyl]phenylacetic acid] was 300 nM; that for `CN(CC(=O)c1ccc(OCC(=O)O)c(OCC(=O)O)c1)C(=O)c1ccc(C(=N)N)cc1` [Example 83, [4-(p-amidino-N-methylbenzamido)acetyl-o-phenylenedioxy]diacetic acid] was 0.07 nM.
